Data set [1] is described as follows: in vivo. The settings on record: Sprague-Dawley, rat, po, 10 mg/kg.
Data set [2] can be described thus: in vivo. The note with it: Sprague-Dawley, rat.
Data set [3] is described as follows: in vivo. The settings on record: Sprague-Dawley, rat, iv, 5 mg/kg.
Data set [4] can be described thus: Metabolic stability in rhesus monkey hepatocytes. It counts as ADME, cell-based, Macaca mulatta, Hepatocyte.
Data set [5] in a line: Metabolic stability in Beagle dog hepatocytes. Format: ADME, cell-based, Canis lupus familiaris, Hepatocyte.
Data set [6] in a line: Metabolic stability in cynomolgus monkey hepatocytes. Format: ADME, cell-based, Macaca fascicularis, Hepatocyte.
In data set [7] the test system is Hepatocyte. Description: Metabolic stability in human hepatocytes. It counts as ADME, cell-based.
Data set [8] has as its system Hepatocyte. Description: Metabolic stability in Sprague-Dawley rat hepatocytes. It counts as ADME, cell-based.
Data set [9] can be described thus: Terminal half life in Beagle dog at 1 mg/kg, po and 0.5 mg/kg, iv. It counts as ADME, organism-based, Canis lupus familiaris. The note with it: in vivo.
Data set [10] in a line: Clearance in Beagle dog at 1 mg/kg, po and 0.5 mg/kg, iv. Format: ADME, organism-based, Canis lupus familiaris. The settings on record: in vivo.
Data set [11] is described as follows: Oral bioavailability in rhesus monkey at 1 mg/kg. It counts as ADME, organism-based, Macaca mulatta. The note with it: in vivo.
Data set [12] can be described thus: Volume of distribution at steady state in Sprague-Dawley rat at 10 mg/kg, po and 5 mg/kg, iv. Format: ADME, organism-based. The note with it: in vivo, read-out: Vdss.
A short description of data set [13]: Volume of distribution at steady state in Beagle dog at 1 mg/kg, po and 0.5 mg/kg, iv. It counts as ADME, organism-based, Canis lupus familiaris. The note with it: in vivo, read-out: Vdss.
The nature of data set [14]: Terminal half life in cynomolgus monkey at 1 mg/kg, po and 0.5 mg/kg, iv. It counts as ADME, organism-based, Macaca fascicularis. The note with it: in vivo.
A short description of data set [15]: Volume of distribution at steady state in rhesus monkey at 1 mg/kg, po and 0.5 mg/kg, iv. Format: ADME, organism-based, Macaca fascicularis. The settings on record: cynomolgus monkey, in vivo, read-out: Vdss.
Data set [16] in a line: Oral bioavailability in Beagle dog at 1 mg/kg. Format: ADME, organism-based, Canis lupus familiaris. The settings on record: in vivo.
Data set [17] can be described thus: Clearance in cynomolgus monkey at 1 mg/kg, po and 0.5 mg/kg, iv. Format: ADME, organism-based, Macaca fascicularis. The note with it: in vivo.
The nature of data set [18]: Oral bioavailability in cynomolgus monkey at 1 mg/kg. Format: ADME, organism-based, Macaca fascicularis. The settings on record: in vivo.
A short description of data set [19]: Volume of distribution at steady state in cynomolgus monkey at 1 mg/kg, po and 0.5 mg/kg, iv. It counts as ADME, organism-based, Macaca fascicularis. The note with it: in vivo, read-out: Vdss.
The nature of data set [20]: Terminal half life in rhesus monkey at 1 mg/kg, po and 0.5 mg/kg, iv. The note with it: cynomolgus monkey, in vivo. Format: ADME, organism-based, Macaca fascicularis.
Data set [21] is described as follows: Clearance in rhesus monkey at 1 mg/kg, po and 0.5 mg/kg, iv. Format: ADME, organism-based, Macaca fascicularis. The note with it: cynomolgus monkey, in vivo.

Molecules are shown by their SMILES.

A word on the half-life: it is the time needed for the level to fall by half in the phase considered.

With `CN([C@@H]1CCc2c(CC(=O)O)c3cccc(F)c3n2C1)S(=O)(=O)c1ccc(F)cc1`, the bioavailability in “in vivo [1]” is 62%. In the data set “in vivo [2]”, this molecule gave a half-life of 16 h. The molecule also showed a clearance in the data set “in vivo [3]” of 0.4 mL/min/kg.

Take `CN([C@@H]1CCc2c(CC(=O)O[C@@H]3O[C@H](C(=O)O)[C@@H](O)[C@H](O)[C@H]3O)c3ccccc3n2C1)S(=O)(=O)c1ccc(F)cc1`: the Stability result (in [4]; in data set [5]; in [6]; with Hepatocyte [7]; in the data set on Hepatocyte [8]) was “Stable” throughout.

Consider `CN([C@@H]1CCc2c(CC(=O)O)c3ccccc3n2C1)S(=O)(=O)c1ccc(F)cc1` [MK-7246], for which the half-life in [9] was 8.4 h; in the data set “in vivo [2]”, 5.6 h; in [14] it was 11 h; in [20], 8.1 h. Moreover, the clearance in data set [10] was 15 mL/min/kg; in the data set “in vivo [3]”, 2.2 mL/min/kg; in data set [17], 4.8 mL/min/kg; in data set [21], 6.9 mL/min/kg. Also, the Stability entry (in data set [4]; in data set [5]; in data set [6]; in the data set on Hepatocyte [7]; with Hepatocyte [8]) was “Stable” each time. Besides, the bioavailability in the data set “in vivo [1]” came to 107%; in [11] it was 57%; in [16] it was 5.6%; in [18], 10%. Also, the Vd was 0.98 L/kg in data set [12], 2.3 L/kg in [13], 2.6 L/kg in [15] and 0.5 L/kg in [19].

The values are drawn from ChEMBL document CHEMBL1641519, “Discovery of MK-7246, a selective CRTH2 antagonist for the treatment of respiratory diseases” (Bioorg Med Chem Lett, 2011).
